Marks after values point to notes of the source that are not given here.

The assay relates to IL-1β-stimulated PGE2 secretion in articular chondrocytes. Briefly: IL-1β-stimulated PGE2 secretion in articular chondrocytes (EIA). The assay is classed as cell-based, rabbit. The settings on record: for C8 inhibitory effect (%inhibition) on PGE2 secretion: DMEM with 2% FCS, 20 h; for decrease of PGE2 production induced by IL-1β: IL-1β 20 h. As to the method: We tested the effect of C8 on the IL-1β-stimulated secretion of PGE2 in chondrocytes. PGE2 synthesis takes place mainly in response to cell activation by IL-1β, and its generation accounts for many of the actions induced by this cytokine. In vitro, IL-1β induces the expression of COX-2 by chondrocytes, which results in increased PGE2 production. PGE2 release thus represents a powerful IL-1β- and PLA2-dependent inflammatory marker in our cell model. Chondrocytes were treated for 20 h with IL-1β alone or 1 h after the addition of C8. […] In DMEM alone, at concentrations of 0.31-, 0.62-, 0.94-, and 1.24-µM, C8 decreased the production of PGE2 induced by IL-1β by 59-, 58-, 74-, and 80-%, respectively (Fig. 4A). In DMEM supplemented with 0.1% BSA, at concentrations of 0.31-, 0.62-, 0.94-, 1.24-, 2.48-, and 4.96-µM, C8 decreased the production of PGE2 induced by IL-1β by 31-, 30-, 45-, 43-, 81-, and 92-%, respectively (Fig. 4B). In DMEM supplemented with 2% FCS, at concentrations of 0.31-, 0.62-, 0.94-, 1.24-, 2.48-, and 4.96-µM, C8 decreased the production of PGE2 induced by IL-1β by 26-, 48-, 49-, 54-, 68-, and 68-%, respectively (Fig. 4C). […] The effect of C8 was then evaluated at the extreme concentrations (0.31- and 4.96-µM) in DMEM supplemented with 2% FCS and containing decreasing (1-, 0.5-, and 0.25-ng/mL) IL-1β concentrations (Table 3). The anti-IL-1β inhibitory effect of C8 at 0.31 µM increases when IL-1β concentration decreases. […] This is probably due to the fact that at 4.96 µM, the inhibitory effect of C8 on IL-1β-induced PGE2 production is maximal. […] Thus, C8, but not C1, decreases the IL-1β-stimulated PGE2 secretion in a dose-dependent manner in the three culture medium compositions used.
Articular chondrocytes were isolated from 5-week-old Fauve de Bourgogne female rabbits (CPA, Orleans, France) and cultured at the first passage in conditions avoiding cell dedifferentiation as previously described. Cells were cultured at 37°C in 12-well plates in Ham's F-12 medium containing 10% FCS, 20 IU/mL penicillin, and 20 µg/mL streptomycin (all from Invitrogen) until nearly confluent. Then medium was replaced with DMEM (Invitrogen) containing 20 IU/mL penicillin, and 20 µg/mL streptomycin and, if necessary, 0.1% fatty acid free BSA (Sigma) or 2% FCS. At this time the C8 compound dissolved in DMSO (Sigma) was added to the medium (the amount of DMSO was kept at 1‰ (v/v) in all the wells). 1 h after the addition of C8, IL-1β (PeproTech) was added to the medium. Consequently, chondrocytes were incubated for 20 h with IL-1β and for 21 h with C8.
20 h after the addition of IL-1β to the chondrocytes, culture media were collected, and aliquots were stored at −80°C until PGE2 and nitrite quantification. PGE2 concentration in culture media was determined by use of an enzyme immunoassay (EIA) kit (PGE2 EIA Kit-monoclonal; Cayman Chemical). Nitrite concentration was determined by a spectrophotometry method based on the Griess reaction. Briefly, 200 µL of culture medium or sodium nitrite (NaNO2, Merck) standard dilutions were mixed with 100 µL Griess reagent [0.5% (w/v) sulphanilic acid (Merck), 0.05% (w/v) N(1-naphtyl)ethylenediamine (Merck), 30% (v/v) acetic acid, 1.5 N HCl] and incubated for 10 min at 50°C. The absorbance was measured at 540 nm.

As for `O=c1[nH]c(Cc2ccc(OCCCCCOc3cc4ccccc4c4ccccc34)cc2)no1` [C8], the “C8 inhibitory effect (%inhibition) on PGE2 secretion” value by setting is: (C8 at 0.31 µM, IL-1β 0.25 ng/mL) 67 %inhibition; (C8 at 0.31 µM, IL-1β 0.5 ng/mL) 60 ^* %inhibition; (C8 at 4.96 µM, IL-1β 0.25 ng/mL) 65 %inhibition; (C8 at 4.96 µM, IL-1β 0.5 ng/mL) 67 ^* %inhibition; (C8 at 4.96 µM, IL-1β 1 ng/mL) 68 ^*** %inhibition. For the same molecule, the “decrease of PGE2 production induced by IL-1β” value (from here on “decrease”) is recorded as 31% (DMEM + 0.1% BSA, C8 0.31 µM); 30% (DMEM + 0.1% BSA, C8 0.62 µM); 45% (DMEM + 0.1% BSA, C8 0.94 µM); 43% (DMEM + 0.1% BSA, C8 1.24 µM); 81% (DMEM + 0.1% BSA, C8 2.48 µM); 92% (DMEM + 0.1% BSA, C8 4.96 µM). The “decrease” value came to 26% (DMEM + 2% FCS, C8 0.31 µM); 48% (DMEM + 2% FCS, C8 0.62 µM); 49% (DMEM + 2% FCS, C8 0.94 µM); 54% (DMEM + 2% FCS, C8 1.24 µM); 68% (DMEM + 2% FCS, C8 2.48 µM); 68% (DMEM + 2% FCS, C8 4.96 µM). Further, the “decrease” value was determined as 59% (DMEM alone, C8 0.31 µM); 58% (DMEM alone, C8 0.62 µM); 74% (DMEM alone, C8 0.94 µM); 80% (DMEM alone, C8 1.24 µM). For the same molecule, the “down-regulation of IL-1β-stimulated secretion of PGE2” value (DMEM + 0.1% BSA, C8 4.96 µM) is given as “to the level of the control untreated condition”; the “down-regulation of IL-1β-stimulated secretion of PGE2” value (DMEM + 2% FCS, C8 2.48 and 4.96 µM) is “to the level of the control untreated condition”.

These data come from paper PMC2879362, “Design of Group IIA Secreted/Synovial Phospholipase A2 Inhibitors: An Oxadiazolone Derivative Suppresses Chondrocyte Prostaglandin E2 Secretion” (PLoS ONE, 2010).
